The values below come from US8088802B2, “N-phenylarylsulfonamide compound, pharmaceutical composition comprising the compound as active ingredient, synthetic intermediate for the compound and process for its preparation” (Ono Pharmaceutical Co., Ltd., priority 2001, dated 2012).

pIC50, pKi: −log10 of the molar value. Counter-ions that a name gives are not always drawn.

Data set [1] in a line: Stability measured on HPLC (Comparison Example 1). The data set is classed as physicochemical. The settings on record: for Stability (in words): comment on Table 4. The procedure:
A Comparison of the Stability of 4-methyl-2-thiazolylsulfonyl chloride with that of the Compound Prepared in Examples 8 and 9
The solution prepared in Reference Example 1 was concentrated under reduced pressure to give 4-methyl-2-thiazolylsulfonyl chloride. The stability of this compound and the compounds prepared in Examples 8 and 9 was measured on HPLC. The conditions of HPLC were as follows.
Column: YMC-Pack ODS-AM-302(4.6 mm*150 mm)
Eluting solvent: MeCN/3 mM tetra-n-butylammonium phosphate=40/60

The target of data set [2] is T1, mouse EP1 (Mus musculus, UniProt P35375).
T1 sequence (P35375 1-405): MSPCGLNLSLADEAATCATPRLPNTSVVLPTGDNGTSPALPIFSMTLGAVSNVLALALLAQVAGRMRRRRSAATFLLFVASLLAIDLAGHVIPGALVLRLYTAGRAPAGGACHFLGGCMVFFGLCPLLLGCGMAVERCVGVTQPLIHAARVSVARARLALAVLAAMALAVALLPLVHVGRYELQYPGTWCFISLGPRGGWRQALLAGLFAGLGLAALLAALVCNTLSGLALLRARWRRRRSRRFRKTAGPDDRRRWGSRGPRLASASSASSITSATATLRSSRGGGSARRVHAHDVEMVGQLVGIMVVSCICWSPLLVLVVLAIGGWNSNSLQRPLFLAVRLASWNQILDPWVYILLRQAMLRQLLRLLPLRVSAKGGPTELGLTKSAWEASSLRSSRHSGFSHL
In words: Binding assay using expression cell of prostanoid receptor subtype (3H-PGE2 competition, membrane fraction). The arrangement: expressed in transfected cells; host or cells: CHO cells, membrane fraction. The settings on record: competition of 3H-PGE2 (2.5 nM) binding, CHO cell membrane fraction. Here is the method: (i) Binding Assay Using Expression Cell of Prostanoid Receptor Subtype
The preparation of membrane fraction was carried out according to the method of Sugimoto et al. (J. Biol. Chem., 267, 6463-6466 (1992)), using expression CHO cell of prostanoid receptor subtype (mouse EP1, EP2, EP3α or EP4).
The standard assay mixture containing membrane fraction (0.5 mg/ml) and ^3H-PGE2 in a final volume of 200 μl was incubated for 1 hour at room temperature. The reaction was terminated by addition of ice-cold buffer (3 ml). The mixture was rapidly filtered through a glass filter (GF/B). The radioactivity associated with the filter was measured by liquid scintillation counting.
Kd and Bmax values were determined from Scatchard plots (Ann. N.Y. Acad. Sci., 51, 660 (1949)). Non-specific binding was calculated as the binding in the presence of an excess (2.5 μM) of unlabeled PGE2. In the experiment for competition of specific ^3H-PGE2 binding by the compound of the present invention, ^3H-PGE2 (2.5 nM) and the compound of the present invention were added. The following buffer was used in all reaction.
Buffer: potassium phosphate (pH 6.0, 10 mM), EDTA (1 mM), MgCl2 (10 mM) and NaCl (0.1 M).
The dissociation constant Ki (μM) of each compound was calculated by the following equation. Ki=IC50/(1+([C]/Kd))
wherein [C] is concentration of ^3H-PGE2 used in the reaction

The target in data set [3] is T1, mouse EP1. Description: Receptor antagonism using cells expressing EP1 in the presence of BSA (intracellular calcium). The data set is classed as cell-based. The arrangement: expressed in transfected cells. The settings on record: inhibition of PGE2 (100 nM)-induced increase of intracellular calcium; assay buffer with 1% (w/v) BSA. Here is the method: (ii) Experimental Measurement of the Activity of Receptor Antagonism Using Cells Expressing Prostanoid Receptor Subtype EP1 in the Presence of BSA (Bovine Serum Albumin)
The cells expressing mouse EP1 receptor were seeded at 1×10^4 cells/well in 96 well plates and cultured for 2 days with 10% FBS (fetal bovine serum)/minimum essential medium Eagle alpha modification (αMEM) in the incubator (37° C., 5% CO2). The cells in each well were rinsed with phosphate buffer (PBS(−)), and load buffer was added. After incubation for 1 hour, the load buffer was discarded. After the addition of the assay buffer to each well, the cells were incubated in a dark place at room temperature for 1 hour. After the addition of a compound of the present invention (10 μl) and PGE2 (10 μl) which were prepared with assay buffer, intracellular calcium concentration was measured with Fluorescence drug screening system (FDSS-4000, Hamamatsu Photonics). A pair of fluorescence intensities emitted 500 nm by an excitation wavelength of each 340 nm and 380 nm was measured.
The EP1 antagonist activity was estimated as percent inhibition of the increase of intracellular calcium concentration induced by PGE2 (100 nM).
Load buffer: 10% FBS/αMEM containing 5 μM of Fura 2/AM, 20 μM of indomethacin, 2.5 mM of probenecid
Assay buffer: Hank's balanced salt solution (HBSS) containing 1% (w/v) BSA, 2 μM of indomethacin, 2.5 mM of probenecid and 10 mM of HEPES-NaOH

The next data set has as its system EP1 receptor. Description: Inhibition of sulprostone-induced increase of intravesical pressure of bladder in rats. It counts as in vivo, rat. The settings on record: female Wistar rats, 1 mg/kg intraduodenal, 40 minutes after administration. The text has this: (iii) Experiment to Assess the Inhibition of Sulprostone-Induced Increase of Intravesical Pressure of Bladder in Rats.
Female rats (Wistar) were anesthetized by urethane and their both ureters were ligated and cut off at the kidney side. The urinary bladder was incised its top and catheter was inserted. The other end of catheter was connected to the pressure transducer and the infusion pump. Repeated micturition reflex, which was induced by the continuous infusion of citrate buffer (pH 3.5) into the bladder, was recorded. The increase of micturition pressure was elicited by the subcutaneous injection of diclofenac (5 mg/kg) and sulprostone (300 μg/kg). Since such an increasing effect was not observed by the treatment of EP3 agonist, it was considered that this increase was caused by the activation of EP1 receptor. The inhibitory effects of the compound of the present invention on this increase of intravesical pressure were measured for 60 minutes after the intraduodenal administration (2 ml/kg).

For the compound `Cc1csc(S(=O)(=O)Cl)n1` [4-methyl-2-thiazolylsulfonyl chloride, 4-methyl-2-thiazolylsulfonylchloride], the “Residual Rate (%)” value is on record as 102.0% in data set [1] (1 °C, 24 hour); 96.3% in data set [1] (1 °C, 48 hour); 98.6% in data set [1] (1 °C, 72 hour); 71.4% in data set [1] (20 °C, 24 hour); 20.6% in data set [1] (20 °C, 48 hour); 2.0% in data set [1] (20 °C, 66 hour). For the same compound, the “Residual Rate (%)” value in data set [1] (40 °C, 16 hour) turned out to be 60.9%; in data set [1] (40 °C, 24 hour), 7.6%. Further, the “Stability (in words)” value in data set [1] was “stable at low temperature, but when subjected to room temperature or higher, it is hard to assure the stability”.
In turn, `Cc1ccc(S(=O)(=O)N(CC(C)C)c2cc(C)c(C)cc2OCc2ccc(C(=O)O)cc2)o1` [Example 2 (6), 4-[2-[N-isobutyl-N-(5-methyl-2-furylsulfonyl)amino]-4,5-dimethylphenoxymethyl]benzoic acid] showed a pKi on mouse EP1 [2] of 9.49. In addition, the negative logarithm of the IC50 (pIC50) at mouse EP1 [3] was 8.14.
The corresponding values for `Cc1ccc(S(=O)(=O)N(CC(C)C)c2cc3c(cc2OCc2ccc(/C=C/C(=O)O)cc2)CCC3)o1` [Example 2 (32), 4-[6-[N-isobutyl-N-(5-methyl-2-furylsulfonyl)amino]indan-5-yloxymethyl]cinnamic acid] are 8.10 and 7.68.
On mouse EP1 [2], `Cc1ccc(S(=O)(=O)N(CC(C)C)c2cc3c(cc2OCc2ccc(C(=O)O)cc2C)CCC3)o1` [Example 2 (33), 3-methyl-4-[6-[N-isobutyl-N-(5-methyl-2-furylsulfonyl)amino]indan-5-yloxymethyl]benzoic acid] showed a negative-log Ki (pKi) of 8.18. In addition, the “Inhibition (%) (40 minutes later)” value with EP1 receptor worked out at 79 ± 11%. The pIC50 at mouse EP1 [3] was 8.39.
The compound `Cc1csc(S(=O)(=O)N(CC(C)C)c2ccc(C(F)(F)F)cc2OCc2ccc(/C=C/C(=O)O)cc2)n1` [Example 2 (41), 4-[2-[N-isobutyl-N-(4-methyl-2-thiazolylsulfonyl)amino]-5-trifluoromethylphenoxymethyl]cinnamic acid] showed a pKi on mouse EP1 [2] of 8.82. Also, the pIC50 at mouse EP1 [3] is 7.60.
The corresponding values for `Cc1cc(OCc2ccc(C(=O)O)cc2C)c(N(CC(C)C)S(=O)(=O)c2ccccn2)cc1C` [Example 2 (87), 3-methyl-4-[2-[N-isobutyl-N-(2-pyridylsulfonyl)amino]-4,5-dimethylphenoxymethyl]benzoic acid] are 8.85 and 8.14.
In the same order, the values of `Cc1cc(OCc2ccc(/C=C/C(=O)O)cc2C)c(N(CC(C)C)S(=O)(=O)c2cccnc2)cc1C` [Example 2 (94), 3-methyl-4-[2-[N-isobutyl-N-(3-pyridylsulfonyl)amino]-4,5-dimethylphenoxymethyl]cinnamic acid] are 8.41 and 8.04.
As for `Cc1ccc(S(=O)(=O)N(CC(C)C)c2cc(C)c(C)cc2OCc2ccc(C(=O)O)cc2C)o1` [Example 2, 3-methyl-4-[2-[N-isobutyl-N-(5-methyl-2-furylsulfonyl)amino]-4,5-dimethylphenoxymethyl]benzoic acid], the pKi at mouse EP1 [2] is 8.38. For the same compound, the “Inhibition (%) (40 minutes later)” value in the data set with EP1 receptor is reported as 68 ± 1%. For the same compound, on mouse EP1 [3], the pIC50 is 8.11.
Take `Cc1csc(S(=O)(=O)N(c2cc(C)c(Cl)cc2OCc2ccc(-c3nnn[nH]3)cc2C)C(C)C)n1` [Example 3 (11), N-[4-chloro-5-methyl-2-[2-methyl-4-(5-tetrazolyl)phenylmethyloxy]phenyl]-N-isopropyl-(4-methyl-2-thiazolyl)sulfonylamide]: the pKi at mouse EP1 [2] is 8.64. The negative-log IC50 (pIC50) at mouse EP1 [3] is 8.31.
On to `Cc1cc(OCc2ccc(-c3nnn[nH]3)cc2Cl)c(N(C(C)C)S(=O)(=O)c2cccnc2)cc1C` [Example 3 (30), N-[4,5-dimethyl-2-[2-chloro-4-(5-tetrazolyl)phenylmethyloxy]phenyl]-N-isopropyl-3-pyridylsulfonylamide], for which the pKi at mouse EP1 [2] is 9.10. Besides, the pIC50 at mouse EP1 [3] was 8.43.
`Cc1csc(S(=O)(=O)N(c2cc(C)c(C)cc2OCc2ccc(-c3noc(=O)[nH]3)cc2)C(C)C)n1` [Example 4 (14), N-[4,5-dimethyl-2-[4-(5-oxo-1,2,4-oxadiazol-3-yl)phenylmethyloxy]phenyl]-N-isopropyl-(4-methyl-2-thiazolyl)sulfonylamide]: the pKi at mouse EP1 [2] is 9.10. Moreover, the pIC50 on mouse EP1 [3] was 8.15.
Take `Cc1csc(S(=O)(=O)On2nnc3ccccc32)n1` [Example 8, 1-(4-methylthiazol-2-ylsulfonyloxy)-1,2,3-benzotriazole]: the “Residual Rate (%)” value in data set [1] (40 °C, 24 hour) is recorded as 99.8%. In addition, the “Stability (in words)” value in data set [1] is “stable even at high temperature”.
In the same order, the values of `Cc1csc(S(=O)(=O)n2cc[n+](C)c2)n1` [Example 9, 1-(4-methylthiazol-2-ylsulfonyl)-3-methylimidazol-1-onium hydrogen chloride salt] are 99.6% and “stable even at high temperature”.
`Cc1ccc(N(CC(C)C)S(=O)(=O)c2ccco2)c(OCc2ccc(C(=O)O)cc2)c1` [Example 18 (93), reference compound]: on mouse EP1 [2], the pKi is 9.10. Besides, the pIC50 on mouse EP1 [3] is 6.70.
With `Cc1ccc(OCc2ccc(C(=O)O)cc2)c(N(CC(C)C)S(=O)(=O)c2ccco2)c1` [Example 18 (113), reference compound], at mouse EP1 [2], the pKi is 8.26. The pIC50 at mouse EP1 [3] was 6.33.
Compound `CC(C)CN(c1ccc(Cl)cc1OCc1ccc(C(=O)O)cc1)S(=O)(=O)c1ccco1` [Example 18 (121), reference compound] showed a pKi at mouse EP1 [2] of 9.00. In addition, the pIC50 at mouse EP1 [3] is 6.59.
`CC(C)CN(c1cc(Cl)ccc1OCc1ccc(C(=O)O)cc1)S(=O)(=O)c1ccco1` [Example 18 (125), reference compound]: the pKi at mouse EP1 [2] is 8.89. For the same compound, the pIC50 on mouse EP1 [3] was 5.87.
